# Measured values from patent publication US20250082625A1, “NOVEL THERAPY” (priority 2016, published 2025).
# “Also recorded” adds a separate entry of the source.
# Experiments:
# [1] = test system: NK1R; assay: Neuropeptide response in bladders of CY-17 infected Nlrp3^−/− mice treated with NK1R antagonist (immunohistochemistry, qRT-PCR); assay type: in vivo; conditions: for Nk1r expression (qRT-PCR) / Ppt-1 expression (qRT-PCR): 1 mg/kg i.p.
# From the text: Mice were bred and housed in the specific pathogen-free MIG animal facilities (Lund, Sweden) with free access to food and water. Female C57BL/6 mice or Il1b^−/−, Nlrp3^−/−, Asc^−/− mice were used for experiments at 9-15 weeks of age.
# Tissues were embedded in O.C.T. compound (VWR) and 7-μm-thick fresh cryosections were mounted on positively charged microscope slides (Superfrost/Plus; Thermo Fisher Scientific) Sections were permeabilized (0.25% Triton X-100, 5% FBS), blocked (5% FBS) and stained: rabbit anti-NK1R (1:50, SC-15323, SantaCruz), rabbit anti-substance p (1:100, ORB11399, Biorbyt), rabbit anti-orexin receptor 2 (1:300, AB104701, Abcam), rabbit anti-GALR2 (1:50, AB136264, Abcam) or rabbit anti-TAS2R43 (1:100, AB65513, Abcam). Antibodies were appropriately labeled using goat anti-rabbit secondary antibodies conjugated to Alexa 488 (1:200 in 0.025% Triton X-100, 5% FBS) for 1 h in RT before nuclear counterstaining using Draq5 (1:1000, Abcam). Sections were imaged by laser scanning confocal microscopy (MSM510 META confocal microscope, Carl Zeiss) or by fluorescence microscopy (AX60, Olympus Optical).
# Complementary DNA was reverse-transcribed from 0.2-1 μg of mice total RNA using SuperScript™ III First-Strand Synthesis System for RT-PCR (Invitrogen), and quantified in real time using primer pairs against Mus musculus Nk1r, Ppt-1^37 and Galr2 and QuantiTect® SYBR® Green PCR kits (Qiagen) on a Rotor Gene Q (Qiagen).
# qRT-PCR reactions were run in technical duplicates and gene expression was analyzed based on ΔΔCT comparison to Mus musculus GAPDH.
# The severity of acute cystitis after 24 hours or seven days was examined and neuropeptide expression and disease severity quantified by immunohistochemistry and qRT-PCR of whole bladder RNA extracts, using primers specific for NK1R, Ppt-1 or Galr2 as described above.
# [2] = test system: differentiated SH-SY5Y cells; assay: Pre-treatment of differentiated SH-SY5Y nerve cells before CY17 infection (confocal imaging, ELISA); assay type: cell-based, human
# Description: (§1) Cells were grown on 8-well chamber slides (6×10^4 cells/well, Thermo Fischer Scientific) or in 6-well plates (6×10^5 cells/well) for 16 hours in media supplemented with 10% FBS. Media were removed, and cells were washed with PBS before adding medium without FBS. Cells were infected with bacteria diluted to appropriate concentration in PBS and incubated for one or four hours at 37° C. with 5% CO2.
# (§2) The two cell types were first infected with increasing concentrations of the acute cystitis strain E. coli CY-17 (10^2-10^4 cfu/ml) for 1 to 4 hours. NK1R and SP expression was used as a read out of the cellular response. […] A concentration of 10^4 cfu/ml of CY-17 and four hours of infection was chosen for further studies. Under these conditions, there was little cytotoxicity. To further characterize the neuropeptide response to bladder infection, the in vitro analysis was extended to include GALR2, OrxR2 and TAS2R43. Confocal microscopy was used in this instance. Infected cells were fixed (3.7% formaldehyde, 15 min), permeabilized (0.25% triton X-100, 5% FBS, 10 min), blocked (5% FBS, 1 h at RT), incubated overnight with primary antibodies in 5% FBS: Anti-NK1R (1:100, SC-15323, Santa Cruz), anti-SP, (1:200, ORB11399, Biorbyt), anti-orexin receptor 2, (1:200, AB10470, Abcam), anti-TAS2R43, (1:200, AB65513, Abcam), and anti-GALR2 antibodies (1:100, AB136264, Abcam). Appropriate fluorescently labeled secondary antibodies were used (Alexa Fluor® 488 goat anti-rabbit IgG, A-11034; Life Technologies, (1 hour at Room Temperature). After nuclear staining (DRAQ5, 1:1000, Abcam) slides were mounted (Fluoromount, Sigma-Aldrich), imaged by laser scanning confocal microscopy (MSM510 META confocal microscope, Carl Zeiss) and quantified by ImageJ software 1.46r (NIH).
# (§3) HTB-9 cells and differentiated SH-SY5Y cells were pre-treated with SR140333, or IL-1RA Anakinra (500 ng/ml) for 30 minutes before infection with CY17 (10^4 cfu/ml, four hours), or treatment with exogenous recombinant SP (R&D System) or IL-1β (Abnova) (20 ng/ml, four hours). After infection, cells were infected with CY17 and the NK1R, SP and IL-1β response was quantified by confocal imaging. IL-1β- and SP secretion was quantified by ELISA, in culture supernatants. In nerve- and bladder epithelial cells, SR140333 inhibited the SP/NK1R response to infection, consistent with an autocrine activation loop involving SP/NK1R as shown by confocal imaging (FIG. 10a). […] SP activated IL-1β expression and secretion in bladder epithelial cells but had no effect on IL-1β on nerve cells. (*=P<0.05, **=P<0.01, ***=P<0.001, Two-tailed t-test for confocal imaging data and Mann-Whitney U-test for ELISAs.
# Furthermore, to examine if the effects of NK1R inhibition can be generalized, we used two additional NK1R antagonists (CP99994 and L703.303). […]
# [3] = test system: HTB-9 cells; assay: Pre-treatment of HTB-9 bladder epithelial cells before CY17 infection (confocal imaging, ELISA); assay type: cell-based, human
# Description: as §1, §2, §3
# Furthermore, to examine if the effects of NK1R inhibition can be generalized, we used two additional NK1R antagonists (CP99994 and L703.303). HTB-9 cells and differentiated SH-SY5Y cells were pre-treated with SR140333, CP99994, L-703.606 or IL-1RA Anakinra (500 ng/ml) for 30 minutes before infection with CY17 (10^4 cfu/ml, four hours), or treatment with exogenous recombinant SP (R&D System) or IL-1β (Abnova) (20 ng/ml, four hours).
# [4] = Nlrp3^−/− mice, CY-17 infection, SR140333 i.p. 1 mg/kg, vs untreated infected mice, 1 mg/kg
# [5] = pre-treated 30 minutes before CY17 (10^4 cfu/ml, four hours)
# [6] = pre-treated before CY17 infection
smiles,measurement,setting,value
"CC(C)Oc1cccc(CC(=O)N2CCC[C@](CC[N+]34CCC(c5ccccc5)(CC3)CC4)(c3ccc(Cl)c(Cl)c3)C2)c1.[Cl-] [SR140333, 1-[2-[(3S)-3-(3,4-Dichlorophenyl)-1-[2-[3-(1-methylethoxy)phenyl]acetyl]-3-piperidinyl]ethyl]-4-phenyl-1-azoniabicyclo[2.2.2]octane chloride]",mucosal NK1R response to infection (NK1R staining),[1]; [4],reduced; also recorded: Inhibition
same,mucosal SP response to infection (SP staining),[1]; [4],reduced; also recorded: Attenuated
same,Galr2 expression (qRT-PCR),"[1]; either treatment (prophylactic or post-infection), p=0.19 and p=0.63",no significant effect; also recorded: not altered
same,GALR2 staining,"[1]; infected mice, n=4 mice per condition",does not effect
same,Nk1r expression (qRT-PCR),"[1]; post-infection treatment, p<0.01",reduced
same,Ppt-1 expression (qRT-PCR),"[1]; post-infection treatment, p<0.01, 1 mg/kg",affected; also recorded: Inhibition
same,Nk1r expression (qRT-PCR),"[1]; prophylactic treatment (pretreatment), p<0.05",reduced
same,Ppt-1 expression (qRT-PCR),"[1]; prophylaxis (pretreatment), p=0.06",less efficient
same,SP/NK1R response to infection (confocal imaging),[2]; [5],inhibited
same,"SP secretion (ELISA, culture supernatants)",[2]; [6],decrease
same,SP/NK1R response to infection (confocal imaging),[3]; [5],inhibited
same,"IL-1β secretion (ELISA, culture supernatants)",[3]; [6],inhibited; also recorded: decreased
same,"SP secretion (ELISA, culture supernatants)",[3]; [6],decreased
